Measurements as given in patent US20220218826A1, “COMPOSITION FOR TOPICAL USE FOR PHOTODYNAMIC THERAPY” (UNIVERSIDAD DE LA FRONTERA, priority 2019, published 2022).

Tests used:
[1] = system: PDT-resistant HSC-1 cells; assay: Detection of protoporphyrin IX (PpIX) by flow cytometry; type: cell-based; conditions: 4 hours in the dark
Procedure: For this, PDT-resistant cells, obtained as stated in example 1, were incubated with 150 mg/g MAL, plus EGCG (0.1 mg/g, 0.2 mg/g, 0.4 mg/g) or EDTA (1 mg/g, 2 mg/g, 3 mg/g) for 4 hours in the dark. Subsequently, the PpIX content in resistant cells was detected by flow cytometry, since PpIX is a fluorescent compound.

[2] = system: MAL-PDT-resistant HSC-1 cells; assay: MTT cell viability after MAL-PDT with EGCG and/or EDTA as adjuvants
Procedure: The in vitro effect of EGCG and EDTA separately as adjuvants of MAL-PDT was assessed HSC-1 cells derived from squamous skin carcinoma were used. Previously, these cells received PDT cycles, in order to select those that are resistant to PDT. Therefore, the model used corresponds to MAL-PDT-resistant HSC-1 cells.
The in vitro photodynamic conventional treatment consisted of incubating these cells with MAL 150 mg/g (photosensitiser) for 4 hours in the dark and after radiating them with 630 nm red light, with fluence of 4 J/cm^2. Cell viability was assessed 24 hours later by the MTT assay.
Subsequently, this protocol was carried out in the same way in these cells, only with the following modification: when adding MAL, different concentrations of EDTA were added (0.5 mg/g, 1 mg/g, 1.5 mg/g, and 2 mg/g) or EGCG (0.2 mg/g, 0.4 mg/g, 0.6 mg/g, 0.8 mg/g). The MAL concentration of 150 mg/g was kept in all tests and experiments with irradiation (light) fluency same to the control at 4 J/cm^2, or without radiation, were carried out.

[3] = system: PDT-resistant HSC-1 cells; assay: Detection of reactive oxygen species (ROS) with Muse Oxidative Stress Kit; type: cell-based; conditions: all assessed EGCG concentrations (0.1, 0.2, 0.4 mg/g) + MAL 150 mg/g, 4 hours, red light irradiation
Procedure: Given that in PDT, it is finally the reactive oxygen substances that cause cell damage and death, the production of these compounds was directly assessed. The same model as in example 3 was used, at the same EGCG concentrations stated in FIG. 3A, in order to assess the production of ROS generated in MAL-PDT. Following the previous methodology, after incubating the cells for 4 hours, these received red light irradiation. For ROS detection, these were incubated with a probe (Muse™ Oxidative Stress Kit|MCH100111—Merck Millipore) for 30 minutes and was assessed in a cell analyzer.

O=C(O)CN(CCN(CC(=O)O)CC(=O)O)CC(=O)O [EDTA, ethylenediaminetetraacetic acid]
population that contained PpIX ([1]; MAL 150 mg/g plus EDTA (1, 2, 3 mg/g)): ≤ 13%
effect of EDTA in MAL-PDT on viability ([2]; EDTA, only at 2 mg/g, + MAL 150 mg/g, light 4 J/cm^2): significant

O=C(O[C@@H]1Cc2c(O)cc(O)cc2O[C@@H]1c1cc(O)c(O)c(O)c1)c1cc(O)c(O)c(O)c1 [EGCG, epigallocatechin galate]
population that contained PpIX ([1]; MAL 150 mg/g plus EGCG (0.1, 0.2, 0.4 mg/g)): ≤ 18%
ROS concentration relative to the control [3]: doubled or even tripled
survival rate ([2]; EGCG from 0.4 mg/g + MAL 150 mg/g, light 4 J/cm^2): 0

COC(=O)CCC(=O)CN [MAL, methyl aminolevulinate]
population that contained PpIX ([1]; MAL 150 mg/g alone): 5%
HSC-1 resistant cells survived PDT ([2]; control MAL-PDT: MAL 150 mg/g, 4 hours in the dark, 630 nm red light, 4 J/cm^2, MTT 24 hours later): ~50%
